The results in this text go back to patent US11219625B2, “Inhibitors of N-linked glycosylation and methods using same” (YALE UNIVERSITY, priority 2015, dated 2022).

Each structure is given as a SMILES string.

The subject of experiment [1] is cyclin D1. Put plainly: Cyclin D1 expression (qRT-PCR, western blot), A549. In kind it is cell-based, human. The protocol:
FIGS. 5A-5G illustrate NGI-1 induces G1 arrest and senescence in EGFR addicted tumor cells. FIG. 5A illustrates cell cycle distribution of PC9 cells after 24 h NGI-1 treatment for 24 h determined by flow cytometry. […] FIG. 5B illustrates cell cycle distribution of A549 cells after 24 h NGI-1 treatment for 24 h determined by flow cytometry. FIG. 5C illustrates western blot time course of cyclin D1 expression in PC9 and A549 cells after NGI-1 treatment. FIG. 5D illustrates quantitative real-time PCR analysis of PC9 and A549 cells. A time course of cyclin D1 expression levels relative to GAPDH is represented. […] FIG. 5F illustrates senescence of PC9 cells explored by: cell autofluorescence, measured by flow cytometry using a detector for PE/YFP; lipofuscin accumulation, detected by confocal laser scanning microscopy using an excitation laser of 405 nm with acquired signals from spectrums of yellow 575-620 nm; and morphology changes, enlarged vs. flattened. […] Significance was calculated using a T test (*p<0.05. **p<0.01). FIG. 5G illustrates senescence of A549 cells explored by: cell autofluorescence, measured by flow cytometry using a detector for PE/YFP; lipofuscin accumulation, detected by confocal laser scanning microscopy using an excitation laser of 405 nm with acquired signals from spectrums of yellow 575-620 nm; and morphology changes, enlarged vs. flattened. […]

For experiment [2], the system named is EGFR. Put plainly: EGFR western blot gel mobility, H3255 cells. Type of experiment: cell-based. The following applies: lung adenocarcinoma cells, 10 μM NGI-1, 24 h. As for the experimental part:
FIGS. 3A-3F illustrate the finding that NGI-1 disrupts EGFR glycosylation and cell surface expression. FIG. 3A illustrates EGFR western blots from H3255 treated with or without 10 μM NGI-1 for 24 h. Molecular weight size shifts are compared to PNGase digestion and tunicamycin treatment alone. FIG. 3B illustrates EGFR localization in H3255 cells after 24 h 10 μM NGI-1 treatment analyzed by western blot. Plasma membrane proteins present on the surface of H3255 cells were biotinylated using a non-permeable form of biotin, sulfo-NHS—SS-biotin, and precipitated by streptavidin agarose beads. Biotin-labeled plasma membrane proteins and the fraction of non-biotinylated proteins were subjected to SDS-PAGE and analyzed by western blot against EGFR. FIG. 3C illustrates EGFR localization in H3255 cells after 24 h 10 μM NGI-1 treatment analyzed by confocal microscopy. H3255 cells were subjected to immunofluorescence for EGFR protein (red) counterstained with (CRT; green) and colocalization was determined by confocal microscopy. Nuclei were counterstained with ToPro3 (cyan). […] Bar, 10 μm. FIG. 3D illustrates quantification of colocalization using Image J Colormap Software. […] ITB1 localization after 10 μM NGI-1 for 48 h analyzed by (FIG. 3E) surface biotinylation (FIG. 3F) confocal microscopy (green). […]
(A western blot detects proteins with antibodies after separation by electrophoresis.)

For `Cc1cnc(NC(=O)c2cc(S(=O)(=O)N(C)C)ccc2N2CCCC2)s1` [NGI-1, 5-(N,N-Dimethylsulfamoyl)-N-(5-methylthiazol-2-yl)-2-(pyrrolidin-1-yl)benzamide], the “cyclin D1 mRNA and protein levels” value in experiment [1] is “not significantly affected”. The “EGFR N-linked glycosylation (molecular weight on SDS-PAGE)” value in experiment [2] is recorded as “blocked EGFR N-linked glycosylation”.
